Measurements: patent US20200000816A1, “COMPOUND HAVING SOMATOSTATIN RECEPTOR AGONISTIC ACTIVITY AND PHARMACEUTICAL USE THEREOF” (ONO PHARMACEUTICAL CO., LTD., priority 2017, published 2020)
pEC50, pIC50: −log10 of the molar value.

Experiments:
hERG K+ channel = target: T1, hERG K+ channel (Homo sapiens, UniProt Q12809); assay: Evaluation of hERG K+ channel inhibitory activity using cells expressing human ERG (automated patch-clamp, CHO-K1); type: cell-based; settings: CHO-K1 cells with human ERG gene, tested at 1, 3 and 10 μmol/L, 5-minute incubation
T1 construct: expressed in transfected cells; host or cells: CHO-K1
Method: Evaluation of hERG K^+ Channel Inhibitory Activity Using Cells Expressing Human ERG
CHO-K1 cells having the human ERG gene (ether-a-go-go related gene) introduced therein were subcultured in an F-12 medium [F-12 Nutrient Mixture (HAM)] containing 10% inactivated foetal bovine serum, 100 IU/mL penicillin-100 μg/mL streptomycin and 200 μg/mL geneticin.
Patch-clamp was performed in a full-automated manner using CHO-K1 cells having the human ERG gene introduced therein and having a perforated patch formed therein with amphotericin B. For the experiment, a 384-well PatchPlate™ was used and the cell suspension and compounds were added thereto. The IKr current was measured with command voltages of holding potential of −80 mV, depolarization potential of +40 mV (2 seconds) and repolarization potential of −50 mV (2 seconds). The stimulation frequency was twice (single pulse stimulations) before and after the treatment with a drug (the concentrations of a compound for evaluation were 1, 3 and 10 μmol/L, a 5-minute incubation), and the Ikr maximum current was measured. The inhibition (%) on the CHO-K1 cells having the human ERG gene introduced therein was determined by correcting the variation in the maximum tail current before and after addition of the test substance by the variation thereof in the group treated with a medium (inhibition (%)=(1-variation in current before and after addition of a test substance/variation in current before and after addition of a medium)×100). The 50% inhibitory concentration (IC50 value) was calculated from a line connecting two points on both sides of the inhibition of 50%.

[1] = tested on: Chinese hamster lung-derived CHL/IU cells; assay: Evaluation of phospholipidosis induction ability using cultured cell line (NBD-PE incorporation); type: cell-based; settings: 24 hours, positive = 25% or more of amiodarone maximum reaction at cell viability 50% or more; for phospholipidosis induction ability (judgement): 6.25-100 μmol/L
Method: Chinese hamster lung-derived CHL/IU cells were suspended in an MEM-E culture solution containing non-essential amino acids, sodium pyruvate and 10% foetal bovine serum and seeded in a 96-well plate. The cells cultured overnight in an incubator (5% carbon dioxide, 95% air, 37° C.) were further cultured for 24 hours after replacing the culture solution with a culture solution containing 6.25, 12.5, 25, 50 or 100 μmol/L of a test substance and NBD-PE (fluorescence label N-(7-nitrobenz-2-oxa-1,3-diazol-4-yl)-1,2-dihexadecanoyl-sn-glycero-3-phosphoethanolamine triethylammonium salt) obtained from Molecular Probes. The phospholipidosis induction ability was evaluated by measuring the concentration of NBD-PE incorporated into the cells. Specifically, the cells were washed twice with PBS and then measured for the fluorescence of NBD-PE (excitation wavelength: 485 nm, fluorescence wavelength: 535 nm) incorporated in the cells on a SpectraMax plate reader available from Molecular Devices, LLC. for evaluation. After measurement of the fluorescence of NBD-PE, the cell viability was evaluated with Premix WST-1 Cell Proliferation Assay System available from TaKaRa Bio Inc. The phospholipidosis induction ability was judged to be positive when, at a dose that provided a cell viability of 50% or more, the reaction (the concentration of NBD-PE incorporated after administration of a test substance) was 25% or more of the maximum reaction of a positive control amiodarone (the concentration of NBD-PE incorporated into the cells after administration of amiodarone was regarded as 100%).

human SSTR2 = target: T2, human SSTR2 (Homo sapiens, UniProt P30874); assay: Evaluation of SSTR2 agonistic activity using cells expressing human SSTR2 (suppression of forskolin-stimulated cAMP production, SSTR2-CHO-K1); type: cell-based; settings: suppression of cAMP production by forskolin stimulation, 1000 nmol/L octreotide = 100%
T2 construct: Myc; expressed in transfected cells

GH secretion = assay: Evaluation of suppression of growth hormone (GH) secretion using rats (GHRH-induced); type: in vivo; settings: Rattus norvegicus, 5 min, oral, dosage of 1 mg/kg, GHRH given 8 hours after dosing, blood GH 5 minutes after GHRH
Method: A medium (distilled water (Otsuka distilled water, Otsuka Pharmaceutical Factory, Inc.)) or a test compound dissolved in the medium was orally administered to rats (7-week old male Crl:CD(SD) IGS rats (Charles River Laboratories Japan, Inc.)) and after 7 hours and 57 minutes, the animals were administered with 50 mg/kg of pentobarbital sodium (Somnopentyl, Kyoritsu Seiyaku Corporation) via the tail vein for anaesthesia. Three minutes after administration of pentobarbital sodium, the rats were administered with 0.01 mg/kg of growth hormone-releasing hormone (GHRH, Bachem) via the tail vein to induce GH secretion. In order to measure the blood GH concentration, 0.2 mL of blood was collected through the jugular vein at 5 minutes after administration of GHRH. The collected blood was centrifuged at 4° C., 13,000×g for 5 minutes to obtain plasma. The blood GH concentration was measured by using Rat/Mouse Growth Hormone ELISA (Millipore) following the instruction of the kit. The percentage (%) of suppression of GH secretion was determined by using the obtained blood GH concentration and the equation {[suppression (%) of GH secretion]=([blood GH concentration of the group administered with the medium]−[blood GH concentration of the group administered with a test compound])/[blood GH concentration of the group administered with the medium]×100}. In the equation, the group administered with the medium represents the group of animals administered with the medium and the group administered with a test compound represents the group of animals administered with a test compound dissolved in the medium.

gastric acid secretion = assay: Evaluation of suppression of gastric acid secretion using rats (pyloric ligation); type: in vivo, rat; settings: continuous intravenous administration, 1 μg/kg/h
[2] = target: somatostatin receptor subtype 3 (SSTR3) (Homo sapiens, UniProt P32745); settings: reported in background art; cited from earlier work
[3] = target: somatostatin receptor subtype 1 (SSTR1) (Homo sapiens, UniProt P30872); settings: reported in background art; cited from earlier work
[4] = target: somatostatin receptor subtype 2 (SSTR2) (Homo sapiens, UniProt P30874); settings: reported in background art; cited from earlier work
[5] = target: somatostatin receptor subtype 4 (SSTR4) (Homo sapiens, UniProt P31391); settings: reported in background art; cited from earlier work
Sequence of somatostatin receptor subtype 4 (SSTR4) (P31391 whole entry, species assumed): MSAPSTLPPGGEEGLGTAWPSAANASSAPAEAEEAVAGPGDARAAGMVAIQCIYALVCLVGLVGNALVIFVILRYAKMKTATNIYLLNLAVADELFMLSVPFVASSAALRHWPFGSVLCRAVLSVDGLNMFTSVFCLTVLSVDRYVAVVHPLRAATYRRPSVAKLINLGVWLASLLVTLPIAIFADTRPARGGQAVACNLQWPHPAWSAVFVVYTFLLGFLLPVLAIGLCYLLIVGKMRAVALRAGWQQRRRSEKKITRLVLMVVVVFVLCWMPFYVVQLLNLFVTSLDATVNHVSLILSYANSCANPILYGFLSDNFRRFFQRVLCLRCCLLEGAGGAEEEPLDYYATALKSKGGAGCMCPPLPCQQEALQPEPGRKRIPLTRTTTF

T2 sequence (P30874 whole entry): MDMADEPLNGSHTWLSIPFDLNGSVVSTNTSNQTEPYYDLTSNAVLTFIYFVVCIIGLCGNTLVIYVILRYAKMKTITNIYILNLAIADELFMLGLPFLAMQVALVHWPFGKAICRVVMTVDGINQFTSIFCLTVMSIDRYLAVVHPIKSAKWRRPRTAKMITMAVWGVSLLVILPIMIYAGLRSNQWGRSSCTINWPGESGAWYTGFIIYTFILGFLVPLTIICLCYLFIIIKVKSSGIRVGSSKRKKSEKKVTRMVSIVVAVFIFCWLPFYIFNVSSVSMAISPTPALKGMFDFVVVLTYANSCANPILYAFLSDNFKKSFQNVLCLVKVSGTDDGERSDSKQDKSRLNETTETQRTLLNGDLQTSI
T1 sequence (Q12809 whole entry): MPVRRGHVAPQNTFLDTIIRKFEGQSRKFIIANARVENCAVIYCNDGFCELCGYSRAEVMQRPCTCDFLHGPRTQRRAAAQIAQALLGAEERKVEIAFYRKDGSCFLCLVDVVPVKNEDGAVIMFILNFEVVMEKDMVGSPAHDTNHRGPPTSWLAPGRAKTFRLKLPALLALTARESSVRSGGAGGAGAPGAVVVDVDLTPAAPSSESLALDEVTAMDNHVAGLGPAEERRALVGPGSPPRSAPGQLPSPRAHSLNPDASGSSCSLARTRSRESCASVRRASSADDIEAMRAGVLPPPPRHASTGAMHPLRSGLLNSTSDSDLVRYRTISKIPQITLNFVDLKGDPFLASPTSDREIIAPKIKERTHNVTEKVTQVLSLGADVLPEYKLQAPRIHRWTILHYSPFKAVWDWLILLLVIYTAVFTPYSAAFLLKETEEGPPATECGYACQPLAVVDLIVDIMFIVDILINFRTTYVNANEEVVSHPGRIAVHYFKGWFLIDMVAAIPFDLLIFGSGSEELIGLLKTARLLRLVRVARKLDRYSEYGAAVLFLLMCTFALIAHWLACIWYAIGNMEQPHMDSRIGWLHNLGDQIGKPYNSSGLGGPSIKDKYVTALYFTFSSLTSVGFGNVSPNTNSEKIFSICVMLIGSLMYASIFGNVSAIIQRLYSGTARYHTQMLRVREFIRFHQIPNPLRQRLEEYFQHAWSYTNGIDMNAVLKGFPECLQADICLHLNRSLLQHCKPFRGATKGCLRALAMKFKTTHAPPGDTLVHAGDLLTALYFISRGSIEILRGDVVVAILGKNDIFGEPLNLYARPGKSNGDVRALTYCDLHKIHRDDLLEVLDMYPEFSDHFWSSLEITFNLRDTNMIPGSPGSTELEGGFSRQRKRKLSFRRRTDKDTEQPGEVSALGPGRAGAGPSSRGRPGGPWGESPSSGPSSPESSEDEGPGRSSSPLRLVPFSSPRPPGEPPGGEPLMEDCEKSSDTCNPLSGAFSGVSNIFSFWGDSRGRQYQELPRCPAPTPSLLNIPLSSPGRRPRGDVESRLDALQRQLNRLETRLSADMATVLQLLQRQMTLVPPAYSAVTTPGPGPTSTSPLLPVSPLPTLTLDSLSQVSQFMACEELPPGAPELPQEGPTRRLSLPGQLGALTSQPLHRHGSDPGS
Sequence of somatostatin receptor subtype 2 (SSTR2) (P30874 whole entry, species assumed): as the sequence (P30874 whole entry) above
Sequence of somatostatin receptor subtype 1 (SSTR1) (P30872 whole entry, species assumed): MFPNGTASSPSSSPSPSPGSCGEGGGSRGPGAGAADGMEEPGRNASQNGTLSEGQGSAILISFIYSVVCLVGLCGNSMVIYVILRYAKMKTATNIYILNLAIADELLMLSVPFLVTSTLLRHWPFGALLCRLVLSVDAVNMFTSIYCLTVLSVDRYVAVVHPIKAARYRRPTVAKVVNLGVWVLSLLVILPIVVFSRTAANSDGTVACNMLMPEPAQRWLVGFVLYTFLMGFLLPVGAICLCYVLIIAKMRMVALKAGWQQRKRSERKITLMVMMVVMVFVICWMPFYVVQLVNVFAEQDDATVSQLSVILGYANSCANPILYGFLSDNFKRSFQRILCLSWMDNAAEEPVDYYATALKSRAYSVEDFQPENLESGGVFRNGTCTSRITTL
Sequence of somatostatin receptor subtype 3 (SSTR3) (P32745 whole entry, species assumed): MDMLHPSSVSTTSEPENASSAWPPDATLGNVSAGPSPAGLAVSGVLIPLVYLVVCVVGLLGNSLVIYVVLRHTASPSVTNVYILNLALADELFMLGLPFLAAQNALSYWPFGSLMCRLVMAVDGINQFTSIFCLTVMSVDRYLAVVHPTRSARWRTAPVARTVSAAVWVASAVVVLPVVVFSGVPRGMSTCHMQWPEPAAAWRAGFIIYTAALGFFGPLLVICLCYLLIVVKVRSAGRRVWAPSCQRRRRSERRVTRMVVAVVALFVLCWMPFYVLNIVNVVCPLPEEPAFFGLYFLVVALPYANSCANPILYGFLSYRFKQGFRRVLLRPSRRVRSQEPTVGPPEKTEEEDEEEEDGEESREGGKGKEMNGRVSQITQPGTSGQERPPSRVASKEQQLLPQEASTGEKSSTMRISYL

| Compound | pEC50 (human SSTR2) | pIC50 (hERG K+ channel) | phospholipidosis induction ability (judgement) [1] | inhibition in vivo at 1 mg/kg (GH secretion) [%] | percentage of suppression of gastric acid secretion (gastric acid secretion) [%] | binding affinity to SSTR3 [2] | binding to SSTR1 [3] | binding affinity to SSTR2 [4] | binding to SSTR4 [5] | concentration at which judged to be positive in phospholipidosis induction ability [1] [µM] |
| --- | --- | --- | --- | --- | --- | --- | --- | --- | --- | --- |
| C[C@@H](O)[C@@H]1NC(=O)[C@H](CCCCN)NC(=O)[C@@H](Cc2c[nH]c3ccccc23)NC(=O)[C@H](Cc2ccccc2)NC(=O)[C@@H](NC(=O)[C@H](N)Cc2ccccc2)CSSC[C@@H](C(=O)N[C@H](CO)[C@@H](C)O)NC1=O [octreotide] | – | – | – | – | 39 | – | – | – | – | – |
| CC(C)[C@@H]1NC(=O)[C@H](CCCCN)NC(=O)[C@@H](Cc2c[nH]c3ccccc23)NC(=O)[C@H](Cc2ccc(O)cc2)NC(=O)[C@@H](NC(=O)[C@H](N)Cc2ccc3ccccc3c2)CSSC[C@@H](C(=O)N[C@H](C(N)=O)[C@@H](C)O)NC1=O [lanreotide acetate] | – | – | – | – | – | moderate affinity | do not bind | high affinity | do not bind | – |
| Cc1ncc(-c2cc(F)cc(F)c2)c(N2CC[C@@H](NCCC(F)(F)F)[C@@H](O)C2)c1-c1nc2cc(F)c(F)cc2[nH]1 [Example 3(12), (3S,4R)-1-[3-(5,6-difluoro-1H-benzimidazol-2-yl)-5-(3,5-difluorophenyl)-2-methyl-4-pyridinyl]-4-[(3,3,3-trifluoropropyl)amino]-3-piperidinol] | 9.00 | 5.29 | negative | 85 | – | – | – | – | – | – |

Now from value to compound, other results behind:

| pEC50 (human SSTR2) | Compound | pIC50 (hERG K+ channel) | phospholipidosis induction ability (judgement) [1] | inhibition in vivo at 1 mg/kg (GH secretion) [%] | percentage of suppression of gastric acid secretion (gastric acid secretion) [%] | binding affinity to SSTR3 [2] | binding to SSTR1 [3] | binding affinity to SSTR2 [4] | binding to SSTR4 [5] | concentration at which judged to be positive in phospholipidosis induction ability [1] [µM] |
| --- | --- | --- | --- | --- | --- | --- | --- | --- | --- | --- |
| 10.51 | CCN[C@@H]1CCN(c2c(-c3nc4cc(F)c(F)cc4[nH]3)cncc2-c2cc(F)ccc2F)C[C@@H]1O [Example 5(4), (3S,4R)-1-[3-(5,6-difluoro-1H-benzimidazol-2-yl)-5-(2,5-difluorophenyl)-4-pyridinyl]-4-(ethylamino)-3-piperidinol] | 5.08 | negative | 90 | – | – | – | – | – | – |
| 9.85 | O[C@H]1CN(c2c(-c3cc(F)cc(F)c3)cncc2-c2nc3cc(F)c(F)cc3[nH]2)CC[C@H]1NC1COC1 [Example 5, (3S,4R)-1-[3-(5,6-difluoro-1H-benzimidazol-2-yl)-5-(3,5-difluorophenyl)-4-pyridinyl]-4-(3-oxetanylamino)-3-piperidinol] | 5.12 | negative | 92 | – | – | – | – | – | – |
| 11.30 | COC(=O)c1cc(F)cc2nc(-c3cncc(-c4cc(F)ccc4F)c3N3CC[C@@H](N)[C@@H](O)C3)[nH]c12 [Example 4(16), Methyl 2-{4-[(3S,4R)-4-amino-3-hydroxy-1-piperidinyl]-5-(2,5-difluorophenyl)-3-pyridinyl}-5-fluoro-1H-benzimidazole-7-carboxylate] | 5.41 | – | 67 | – | – | – | – | – | 25 |
